Laboratory results published in patent US20250313577A1, “TRICYCLIC PYRIDONES AND PYRIMIDONES” (ERASCA, INC, priority 2022, published 2025).

Target: T1, KRAS G12C (Homo sapiens, UniProt P01116, G12C)
T1 construct: expressed in transfected cells; host or cells: Ras Initiative (RI) KRAS G12C cells
Assay: phospho-ERK HTRF assay in Ras Initiative (RI) KRAS G12C cells
Assay type: cell-based
Details: phospho-ERK1/2 HTRF, 11-point dose response from 2,500 nM, treatment for either 4 hours or 16 hours, read-out: pERK (RI)
Description: Inhibition of KRAS G12C-Mediates Phospho-ERK1/2 Inhibition by Compounds of Formula I
This Example illustrates that various compounds of the present disclosure inhibit KRAS G12C thereby mediating the downstream inhibition of phospho-ERK1/2.
KRAS G12C mutant cell lines, NCI H358 (ATCC, CRL-5807), and Ras Initiative (R1) KRAS G12C were cultured according to published protocols and maintained at 37° C. in 5% CO2. The phospho-ERK HTRF assay was executed following provider's protocol (CisBio #64AERPEH). NCI-H358 or RI KRAS G12C cells were plated at a density of 50,000 cells per well in a 96-well plate (Corning #3903) in respective medias (for NCI-H358, RPMI+10% FBS+1% Pen/Strep, and for RI KRAS G12C, DMEM+10% FBS+1% Pen/Strep+4 ug/ml Blasticidin) and maintained at 37° C. in 5% CO2. Cells were allowed to adhere overnight and treated the following day with a Tecan D300e Digital Dispenser (Tecan Group Ltd., Switzerland) using an 11-point dose response starting at 2,500 nM of exemplified compounds followed by sequential 1:3 dilutions for either 4 hours or 16 hours. Following compound treatment, the cells were washed once with ice-cold PBS. Cells were lysed by adding 50 μl of lysis buffer (1×) supplemented with 1× Pierce Halt Protease and Phosphatase inhibitor and incubated for 30 minutes at 4° C. with shaking. After lysis, 16 μL of cell lysate from the 96-well cell-culture plate was transferred to a 384-well plate (Perkin Elmer #6007290). The premixed antibody solution was prepared by mixing (vol/vol) advanced phospho-ERK1/2 d2 antibody and advanced phospho-ERK1/2 Eu Cryptate antibody. The premixed antibody solution ([…]) was added to the detection plate containing cell lysate. The detection plate was incubated overnight at 4° C., the HTRF signal was read the next day by using either a Spectramax M5 or Spectramax i3 microplate reader (Molecular Devices, San Jose, CA, USA), and data was processed according to manufacturer's protocol.
Compounds prepared according to the preceding procedures and characterized for inhibition of p-ERK according to the protocol provided herein are summarized in Table 3: […]

T1 sequence (P01116 1-188 isoform P01116-2 G12C): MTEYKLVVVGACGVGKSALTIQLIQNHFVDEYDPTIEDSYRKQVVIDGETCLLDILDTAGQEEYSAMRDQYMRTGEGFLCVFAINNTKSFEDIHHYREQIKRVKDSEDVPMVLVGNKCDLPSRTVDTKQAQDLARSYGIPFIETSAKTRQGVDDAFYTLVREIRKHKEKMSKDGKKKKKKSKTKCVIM

IC50 [nM] | Compound
2 to 20 | C=CC(=O)N1[C@H](C)CN(c2nc(=O)n3c4c(c(-c5cc(Cl)c(F)cc5F)c(C(F)(F)F)cc24)SC[C@@H](c2ccncc2)C3)C[C@@H]1C (single isomer, unassigned) [Example 100A]
2 to 20 | C=CC(=O)N1[C@H](C)CN(c2nc(=O)n3c4c(c(-c5cc(Br)c(F)cc5F)c(C(F)(F)F)cc24)SC[C@@H](c2ccccn2)C3)C[C@@H]1C (single isomer, unassigned) [Example 107A]
